We go through 20 molecules from patent publication US12384770B2, “Heterocyclic compound” (Takeda Pharmaceutical Company Limited, priority 2019, dated 2025).

The target of the test is T1, HDAC6 enzyme (Homo sapiens, UniProt Q9UBN7).
T1 construct: HDAC6 enzyme prepared by transducing full length HDAC6 gene into Sf-9 insect cells; GST; purchased SignalChem; host or cells: Sf-9 insect cells
T1 sequence (Q9UBN7 1-1215): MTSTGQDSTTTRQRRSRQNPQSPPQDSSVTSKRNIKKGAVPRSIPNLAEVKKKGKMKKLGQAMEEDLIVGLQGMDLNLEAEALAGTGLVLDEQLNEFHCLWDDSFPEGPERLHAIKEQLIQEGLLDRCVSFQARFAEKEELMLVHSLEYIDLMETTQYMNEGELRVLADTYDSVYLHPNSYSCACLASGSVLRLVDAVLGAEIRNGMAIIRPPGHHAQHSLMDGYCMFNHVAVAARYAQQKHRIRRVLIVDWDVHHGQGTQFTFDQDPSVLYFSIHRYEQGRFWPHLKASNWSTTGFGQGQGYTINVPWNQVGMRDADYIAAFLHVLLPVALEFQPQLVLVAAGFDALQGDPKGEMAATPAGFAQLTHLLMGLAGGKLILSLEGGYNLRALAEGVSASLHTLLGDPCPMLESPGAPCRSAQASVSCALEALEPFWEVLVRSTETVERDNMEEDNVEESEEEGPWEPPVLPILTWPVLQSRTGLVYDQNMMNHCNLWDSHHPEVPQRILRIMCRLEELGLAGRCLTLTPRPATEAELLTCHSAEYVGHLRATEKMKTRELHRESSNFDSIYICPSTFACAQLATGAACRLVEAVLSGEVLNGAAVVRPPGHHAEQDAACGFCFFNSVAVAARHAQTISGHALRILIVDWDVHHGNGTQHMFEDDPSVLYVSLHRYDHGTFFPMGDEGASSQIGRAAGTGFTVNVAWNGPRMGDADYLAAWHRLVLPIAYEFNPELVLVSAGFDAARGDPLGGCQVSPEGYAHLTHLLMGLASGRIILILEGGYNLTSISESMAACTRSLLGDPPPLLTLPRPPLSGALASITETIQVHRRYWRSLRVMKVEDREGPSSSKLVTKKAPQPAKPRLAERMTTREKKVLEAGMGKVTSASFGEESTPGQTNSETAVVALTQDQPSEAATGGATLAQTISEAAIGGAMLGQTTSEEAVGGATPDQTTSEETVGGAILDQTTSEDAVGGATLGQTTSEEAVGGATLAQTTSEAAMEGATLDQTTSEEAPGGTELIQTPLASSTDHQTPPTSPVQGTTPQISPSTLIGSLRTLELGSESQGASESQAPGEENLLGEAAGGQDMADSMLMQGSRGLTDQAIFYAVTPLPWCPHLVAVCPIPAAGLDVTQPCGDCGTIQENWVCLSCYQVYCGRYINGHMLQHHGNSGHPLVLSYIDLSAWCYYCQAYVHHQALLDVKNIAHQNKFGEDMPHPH
Description: HDAC6 enzyme inhibitory assay (HDAC-Glo I/II Assay kit). The format is biochemical. Conditions: wells without enzyme = 100% inhibition, read-out: HDAC6 inhibitory rate (%) (10 μM). The gist of the method:
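Full-length GST-purified HDAC6 from Sf-9 cells preincubated with compound 60 min at room temperature in Tris-HCl pH 7.5 buffer with MgCl2, KCl, NaCl, glutathione, Tween-20. Substrate-developer reaction 20 min, luminescence read; no-enzyme wells set as 100% inhibition.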
In the case of `O=C1c2cc(-c3nnc(C(F)F)o3)ccc2CN1[C@@H](c1ccc(F)cn1)[C@H](O)c1ccc(F)cn1` (stereo in doubt) [Example 6, 2-[(1S,2S)-1,2-bis(5-fluoropyridin-2-yl)-2-hydroxyethyl]-6-[5-(difluoromethyl)-1,3,4-oxadiazol-2-yl]-2,3-dihydro-1H-isoindol-1-one], the inhibition at 10 µM amounted to 100%.

Consider `O=C1c2cc(-c3nnc(C(F)F)o3)ccc2CN1[C@@H](c1ccccn1)[C@H](O)c1ccccn1` [Example 2, 6-[5-(difluoromethyl)-1,3,4-oxadiazol-2-yl]-2-[(1S,2S)-2-hydroxy-1,2-di(pyridin-2-yl)ethyl]-2,3-dihydro-1H-isoindol-1-one], for which the inhibition at 10 µM amounted to 100%.

In the case of `O=C1c2cc(-c3nnc(C(F)F)o3)ccc2CN1[C@@H](c1ccccn1)[C@H](O)c1ccc(F)cn1` [Example 4, 6-[5-(difluoromethyl)-1,3,4-oxadiazol-2-yl]-2-[(1S,2S)-2-(5-fluoropyridin-2-yl)-2-hydroxy-1-(pyridin-2-yl)ethyl]-2,3-dihydro-1H-isoindol-1-one], the inhibition at 10 µM worked out at 100%.

`O=C1c2cc(-c3nnc(C(F)F)o3)ccc2CN1[C@H](c1ccccn1)[C@@H](O)c1cccc(F)n1` [Example 7, 6-[5-(difluoromethyl)-1,3,4-oxadiazol-2-yl]-2-[(1R,2R)-2-(6-fluoropyridin-2-yl)-2-hydroxy-1-(pyridin-2-yl)ethyl]-2,3-dihydro-1H-isoindol-1-one]: the inhibition at 10 µM turned out to be 102%.

As to `O=C1c2cc(-c3nnc(C(F)F)o3)ccc2CN1[C@@H](c1ccccn1)[C@H](O)c1cccc(F)n1` [Example 8, 6-[5-(difluoromethyl)-1,3,4-oxadiazol-2-yl]-2-[(1S,2S)-2-(6-fluoropyridin-2-yl)-2-hydroxy-1-(pyridin-2-yl)ethyl]-2,3-dihydro-1H-isoindol-1-one], the inhibition at 10 µM amounted to 99%.

For the molecule `O=C1c2cc(-c3nnc(C(F)F)o3)ccc2CN1[C@H](C1CC1)[C@@H](O)c1ccc(F)cc1` [Example 9, 2-[(1R,2S)-1-cyclopropyl-2-(4-fluorophenyl)-2-hydroxyethyl]-6-[5-(difluoromethyl)-1,3,4-oxadiazol-2-yl]-2,3-dihydro-1H-isoindol-1-one], the inhibition at 10 µM is 100%.

As for `O=C1c2cc(-c3nnc(C(F)F)o3)ccc2CN1[C@H](C1CC1)[C@@H](O)c1cccc(F)c1` [Example 10, 2-[(1R,2S)-1-cyclopropyl-2-(3-fluorophenyl)-2-hydroxyethyl]-6-[5-(difluoromethyl)-1,3,4-oxadiazol-2-yl]-2,3-dihydro-1H-isoindol-1-one], the inhibition at 10 µM worked out at 100%.

In the case of `O=C1c2cc(-c3nnc(C(F)F)o3)ccc2CN1[C@H](c1ccccc1)[C@@H](O)c1ccccc1` [Example 11, 6-[5-(difluoromethyl)-1,3,4-oxadiazol-2-yl]-2-[(1R,2S)-2-hydroxy-1,2-diphenylethyl]-2,3-dihydro-1H-isoindol-1-one], the inhibition at 10 µM was 99%.

With `O=C1c2cc(-c3nnc(C(F)F)o3)ccc2CN1[C@H](c1ccccc1)[C@H](O)c1ccccc1` [Example 12, 6-[5-(difluoromethyl)-1,3,4-oxadiazol-2-yl]-2-[(1R,2R)-2-hydroxy-1,2-diphenylethyl]-2,3-dihydro-1H-isoindol-1-one], the inhibition at 10 µM turned out to be 100%.

For `O=C1c2cc(-c3nnc(C(F)F)o3)ccc2CN1[C@@H](c1ccccc1)[C@@H](O)c1ccccc1` [Example 13, 6-[5-(difluoromethyl)-1,3,4-oxadiazol-2-yl]-2-[(1S,2S)-2-hydroxy-1,2-diphenylethyl]-2,3-dihydro-1H-isoindol-1-one], the inhibition at 10 µM was found to be 99%.

For the molecule `O=C1c2cc(-c3nnc(C(F)F)o3)ccc2CN1[C@@H](c1ccccc1)[C@H](O)c1ccccc1` [Example 14, 6-[5-(difluoromethyl)-1,3,4-oxadiazol-2-yl]-2-[(1S,2R)-2-hydroxy-1,2-diphenylethyl]-2,3-dihydro-1H-isoindol-1-one], the inhibition at 10 µM was 100%.

Consider `O=C1c2cc(-c3nnc(C(F)F)o3)ccc2CN1[C@H](C1CC1)[C@@H](O)c1ccccn1` [Example 38, 2-[(1R,2R)-1-cyclopropyl-2-hydroxy-2-(pyridin-2-yl)ethyl]-6-[5-(difluoromethyl)-1,3,4-oxadiazol-2-yl]-2,3-dihydro-1H-isoindol-1-one], for which the inhibition at 10 µM is 100%.

On to `O=C1c2cc(-c3nnc(C(F)F)o3)ccc2CN1[C@H](C1CC1)[C@@H](O)c1ccc(F)cn1` [Example 57, 2-[(1R,2R)-1-cyclopropyl-2-(5-fluoropyridin-2-yl)-2-hydroxyethyl]-6-[5-(difluoromethyl)-1,3,4-oxadiazol-2-yl]-2,3-dihydro-1H-isoindol-1-one], for which the inhibition at 10 µM came out at 100%.

Turning to `O=C1c2cc(-c3nnc(C(F)F)o3)ccc2CN1[C@H](C1CC1)[C@@H](O)c1ccc(F)nc1` [Example 63, 2-[(1R,2S)-1-cyclopropyl-2-(6-fluoropyridin-3-yl)-2-hydroxyethyl]-6-[5-(difluoromethyl)-1,3,4-oxadiazol-2-yl]-2,3-dihydro-1H-isoindol-1-one], the inhibition at 10 µM came to 100%.

`O=C1c2cc(-c3nnc(C(F)F)o3)ccc2CN1[C@H](C1CCOCC1)[C@@H](O)c1cccc(F)c1` [Example 64, 6-[5-(difluoromethyl)-1,3,4-oxadiazol-2-yl]-2-[(1R,2S)-2-(3-fluorophenyl)-2-hydroxy-1-(oxan-4-yl)ethyl]-2,3-dihydro-1H-isoindol-1-one]: the inhibition at 10 µM is 100%.

For the molecule `O=C1c2cc(-c3nnc(C(F)F)o3)ccc2CN1[C@H](C1CCOCC1)[C@@H](O)c1ccc(F)cc1` [Example 72, 6-[5-(difluoromethyl)-1,3,4-oxadiazol-2-yl]-2-[(1R,2S)-2-(4-fluorophenyl)-2-hydroxy-1-(oxan-4-yl)ethyl]-2,3-dihydro-1H-isoindol-1-one], the inhibition at 10 µM was determined as 100%.

Turning to `O=C1c2cc(-c3nnc(C(F)F)o3)ccc2CN1[C@H](C1CC1)[C@H](O)c1ccc(F)cc1` [Example 137, 2-[(1R,2R)-1-cyclopropyl-2-(4-fluorophenyl)-2-hydroxyethyl]-6-[5-(difluoromethyl)-1,3,4-oxadiazol-2-yl]-2,3-dihydro-1H-isoindol-1-one], the inhibition at 10 µM came to 100%.

On to `O=C1c2cc(-c3nnc(C(F)F)o3)ccc2CN1[C@H](C1CCOCC1)[C@H](O)c1ccc(F)cc1` [Example 148, 6-[5-(difluoromethyl)-1,3,4-oxadiazol-2-yl]-2-[(1R,2R)-2-(4-fluorophenyl)-2-hydroxy-1-(oxan-4-yl)ethyl]-2,3-dihydro-1H-isoindol-1-one], for which the inhibition at 10 µM is 101%.

Take `O=C1c2cc(-c3nnc(C(F)F)o3)ccc2CN1[C@H](C1CCOCC1)[C@H](O)c1cccc(F)c1` [Example 149, 6-[5-(difluoromethyl)-1,3,4-oxadiazol-2-yl]-2-[(1R,2R)-2-(3-fluorophenyl)-2-hydroxy-1-(oxan-4-yl)ethyl]-2,3-dihydro-1H-isoindol-1-one]: the inhibition at 10 µM was 100%.

On to `O=C1c2cc(-c3nnc(C(F)F)o3)ccc2CN1[C@H](C1CC1)[C@H](O)c1ccc(F)cn1` [Example 150, 2-[(1R,2S)-1-cyclopropyl-2-(5-fluoropyridin-2-yl)-2-hydroxyethyl]-6-[5-(difluoromethyl)-1,3,4-oxadiazol-2-yl]-2,3-dihydro-1H-isoindol-1-one], for which the inhibition at 10 µM was determined as 99%.
